Consider 31 compounds from US20090247559A1 (Exelixis, Inc., priority 2007, published 2009).

A value given as a limit tells only on which side of the number the result lay.

The target in test [1] is PIM (PIM-1, PIM-2, and/or PIM-3). Put plainly: PIM-1, PIM-2 and PIM-3 inhibition, biochemical chemiluminescence assays (Kinase Glo, IC50 determination). Conditions: Table 1 activity class; PIM refers to PIM-1, PIM-2, and/or PIM-3; read-out: PIM IC50 (Activity B). (In general: Kinase-Glo reads ATP consumption through a luciferase reaction.)
Test [2] deals with CK2 (Homo sapiens, UniProt P68400). Put plainly: CK2 inhibition, biochemical chemiluminescence holoenzyme assay (Kinase Glo, IC50 determination). The note with it: Table 1 activity class; symbol given only if active; read-out: CK2 IC50 (Activity C). The essentials: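 Holoenzyme CK2 assay; compounds pre-incubated with substrate and enzyme, then reacted 150 min at 24-27° C. Remaining ATP measured as luminescence with Kinase Glo, and IC50 derived from the signal.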
Sequence of CK2 (P68400 whole entry): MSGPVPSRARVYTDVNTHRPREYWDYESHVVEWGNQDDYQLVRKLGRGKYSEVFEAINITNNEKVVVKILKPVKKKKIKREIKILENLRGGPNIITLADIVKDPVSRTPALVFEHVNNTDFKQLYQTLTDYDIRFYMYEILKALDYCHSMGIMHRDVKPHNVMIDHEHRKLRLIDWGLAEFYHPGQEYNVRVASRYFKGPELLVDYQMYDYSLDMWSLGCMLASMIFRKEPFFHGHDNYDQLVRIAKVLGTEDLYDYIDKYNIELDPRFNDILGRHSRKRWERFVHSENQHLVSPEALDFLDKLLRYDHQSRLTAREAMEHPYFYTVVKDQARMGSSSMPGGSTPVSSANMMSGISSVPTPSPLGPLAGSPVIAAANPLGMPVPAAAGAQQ
Sequence of CK2 (P67870 whole entry partner): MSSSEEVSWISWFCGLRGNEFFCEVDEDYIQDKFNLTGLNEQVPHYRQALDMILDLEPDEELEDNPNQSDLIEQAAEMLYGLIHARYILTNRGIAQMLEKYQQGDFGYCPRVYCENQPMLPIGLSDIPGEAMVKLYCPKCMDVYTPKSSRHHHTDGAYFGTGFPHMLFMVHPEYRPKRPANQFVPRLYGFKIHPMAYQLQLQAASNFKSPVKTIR

One may read the IC50 as the point on the concentration scale where inhibition reaches its midpoint.

As for `O=C(NCc1ccc(Cl)cc1)C1CCN(Cc2nc3c(oc4ccc(Br)cc43)c(=O)[nH]2)C1` (centres unmarked) [Compound 271, 1-[(8-bromo-4-oxo-3,4-dihydro[1]benzofuro[3,2-d]pyrimidin-2-yl)methyl]-N-[(4-chlorophenyl)methyl]pyrrolidine-3-carboxamide], the IC50 in test [1] and in test [2] was below 10 µM each time.
Regarding `O=C(c1ccccc1)N1CCC(c2nc3c(oc4ccc(Br)cc43)c(=O)[nH]2)CC1` [Compound 234, 8-bromo-2-[1-(phenylcarbonyl)piperidin-4-yl][1]benzofuro[3,2-d]pyrimidin-4(3H)-one], the IC50 in test [1] and in test [2] was below 10 µM in each case.
Turning to `O=C(Nc1ccc(-c2nc3c(oc4ccc(Br)cc43)c(=O)[nH]2)c(Cl)c1)C1CCCCC1` [Compound 250, N-[4-(8-bromo-4-oxo-3,4-dihydro[1]benzofuro[3,2-d]pyrimidin-2-yl)-3-chlorophenyl]cyclohexanecarboxamide], the IC50 in test [1] and in test [2] was below 10 µM in each case.
Consider `O=c1[nH]c(CNc2ccccc2F)nc2c1oc1ccc(Br)cc12` [Compound 19, 8-bromo-2-{[(2-fluorophenyl)amino]methyl}[1]benzofuro[3,2-d]pyrimidin-4(3H)-one], for which the IC50 in test [1] and in test [2] was below 10 µM in each case.
With `COc1ccc(C(=O)Nc2ccc(-c3nc4c(oc5ccc(Br)cc54)c(=O)[nH]3)c(Cl)c2)cc1` [Compound 285, N-[4-(8-bromo-4-oxo-3,4-dihydro[1]benzofuro[3,2-d]pyrimidin-2-yl)-3-chlorophenyl]-4-(methyloxy)benzamide], the IC50 in test [1] and in test [2] was below 10 µM in each case.
For the compound `CN1CCC(Cc2nc3c(oc4ccc(Br)cc43)c(=O)[nH]2)CC1` [Compound 244, 8-bromo-2-[(1-methylpiperidin-4-yl)methyl][1]benzofuro[3,2-d]pyrimidin-4(3H)-one], the IC50 in test [1] and in test [2] was below 10 µM in each case.
For the compound `O=c1[nH]c(-c2ccc(NCc3c[nH]cn3)cc2Cl)nc2c1oc1ccc(Br)cc12` [Compound 139, 8-bromo-2-{2-chloro-4-[(1H-imidazol-4-ylmethyl)amino]phenyl}[1]benzofuro[3,2-d]pyrimidin-4(3H)-one], the IC50 in test [1] and in test [2] was below 10 µM each time.
On to `Cc1cc(N)ccc1-c1nc2c(oc3ccc(Br)cc32)c(=O)[nH]1` [Compound 50, 2-(4-amino-2-methylphenyl)-8-bromo[1]benzofuro[3,2-d]pyrimidin-4(3H)-one], for which the IC50 in test [1] and in test [2] was below 10 µM throughout.
`O=c1[nH]c(-c2cccc(Cl)c2)nc2c1oc1ccc(Br)cc12` [Compound 93, 8-Bromo-2-(3-chlorophenyl)[1]benzofuro[3,2-d]pyrimidin-4(3H)-one]: the IC50 in test [1] and in test [2] was below 10 µM throughout.
On to `COc1cccc(C(=O)Nc2ccc(-c3nc4c(oc5ccc(Br)cc54)c(=O)[nH]3)c(Cl)c2)c1` [Compound 281, N-[4-(8-bromo-4-oxo-3,4-dihydro[1]benzofuro[3,2-d]pyrimidin-2-yl)-3-chlorophenyl]-3-(methyloxy)benzamide], for which the IC50 in test [1] and in test [2] was below 10 µM each time.
In the case of `O=C(Nc1ccc(Cl)c(-c2nc3c(oc4ccc(Br)cc43)c(=O)[nH]2)c1)c1ccncc1` [Compound 314, N-[3-(8-bromo-4-oxo-3,4-dihydro[1]benzofuro[3,2-d]pyrimidin-2-yl)-4-chlorophenyl]pyridine-4-carboxamide], the IC50 in test [1] and in test [2] was below 10 µM each time.
As to `Nc1cccc(-c2nc3c(oc4ccc(Br)cc43)c(=O)[nH]2)c1` [Compound 355, 2-(3-Aminophenyl)-8-bromo[1]benzofuro[3,2-d]pyrimidin-4(3H)-one], the IC50 in test [1] and in test [2] was below 10 µM each time.
In the case of `COc1ccccc1CNCc1nc2c(oc3ccc(Br)cc32)c(=O)[nH]1` [Compound 268, 8-bromo-2-[({[2-(methyloxy)phenyl]methyl}amino)methyl][1]benzofuro[3,2-d]pyrimidin-4(3H)-one], the IC50 in test [1] and in test [2] was below 10 µM each time.
In the case of `O=C(c1ccncc1)N1CCC(c2nc3c(oc4ccc(Br)cc43)c(=O)[nH]2)CC1` [Compound 236, 8-bromo-2-[1-(pyridin-4-ylcarbonyl)piperidin-4-yl][1]benzofuro[3,2-d]pyrimidin-4(3H)-one], the IC50 in test [1] and in test [2] was below 10 µM throughout.
On to `Cc1cc(C(=O)Nc2ccc(-c3nc4c(oc5ccc(Br)cc54)c(=O)[nH]3)c(Cl)c2)cc(Cl)n1` [Compound 274, N-[4-(8-bromo-4-oxo-3,4-dihydro[1]benzofuro[3,2-d]pyrimidin-2-yl)-3-chlorophenyl]-2-chloro-6-methylpyridine-4-carboxamide], for which the IC50 in test [1] and in test [2] was below 10 µM in each case.
In the case of `O=C(Nc1ccc(Cl)c(-c2nc3c(oc4ccc(Br)cc43)c(=O)[nH]2)c1)c1cncnc1` [Compound 329, N-[3-(8-bromo-4-oxo-3,4-dihydro[1]benzofuro[3,2-d]pyrimidin-2-yl)-4-chlorophenyl]pyrimidine-5-carboxamide], the IC50 in test [1] and in test [2] was below 10 µM throughout.
Consider `CN1CCN(c2ccc(COCc3nc4c(oc5ccc(Br)cc54)c(=O)[nH]3)cc2)CC1` [Compound 102, 8-bromo-2-[({[4-(4-methylpiperazin-1-yl)phenyl]methyl}oxy)methyl][1]benzofuro[3,2-d]pyrimidin-4(3H)-one], for which the IC50 in test [1] and in test [2] was below 10 µM each time.
As for `COCCC(=O)N1CCC(c2nc3c(oc4ccc(Br)cc43)c(=O)[nH]2)CC1` [Compound 209, 8-bromo-2-{1-[3-(methyloxy)propanoyl]piperidin-4-yl}[1]benzofuro[3,2-d]pyrimidin-4(3H)-one], the IC50 in test [1] and in test [2] was below 10 µM in each case.
For `O=c1[nH]c(CN2CC[C@H](O)C2)nc2c1oc1ccc(CCCCCCO)cc12` [Compound 457, 8-(6-hydroxyhexyl)-2-{[(3S)-3-hydroxypyrrolidin-1-yl]methyl}[1]benzofuro[3,2-d]pyrimidin-4(3H)-one], the IC50 in test [1] and in test [2] was below 10 µM each time.
With `O=C(Nc1ccc(Cl)c(-c2nc3c(oc4ccc(Br)cc43)c(=O)[nH]2)c1)c1ccno1` [Compound 372, N-[3-(8-bromo-4-oxo-3,4-dihydro[1]benzofuro[3,2-d]pyrimidin-2-yl)-4-chlorophenyl]isoxazole-5-carboxamide], the IC50 in test [1] and in test [2] was below 10 µM each time.
For the compound `COc1cccc(CCNc2ccc3oc4c(=O)[nH]c(CN5CC[C@H](O)C5)nc4c3c2)c1OC` [Compound 445, 8-({2-[2,3-bis(methyloxy)phenyl]ethyl}amino)-2-{[(3S)-3-hydroxypyrrolidin-1-yl]methyl}[1]benzofuro[3,2-d]pyrimidin-4(3H)-one], the IC50 in test [1] and in test [2] was below 10 µM each time.
Turning to `O=c1[nH]c(CNc2ccccc2Cl)nc2c1oc1ccc(Br)cc12` [Compound 11, 8-bromo-2-{[(2-chlorophenyl)amino]methyl}[1]benzofuro[3,2-d]pyrimidin-4(3H)-one], the IC50 in test [1] and in test [2] was below 10 µM throughout.
Consider `CN(C)CCC(=O)N1CCC(c2nc3c(oc4ccc(Br)cc43)c(=O)[nH]2)CC1` [Compound 206, 8-bromo-2-[1-(N,N-dimethyl-beta-alanyl)piperidin-4-yl][1]benzofuro[3,2-d]pyrimidin-4(3H)-one], for which the IC50 in test [1] and in test [2] was below 10 µM in each case.
As to `O=c1[nH]c(-c2ccc(Cl)s2)nc2c1oc1ccc(Br)cc12` [Compound 69, 8-bromo-2-(5-chloro-2-thienyl)[1]benzofuro[3,2-d]pyrimidin-4(3H)-one], the IC50 in test [1] and in test [2] was below 10 µM in each case.
With `O=c1[nH]c(CN2CC[C@H](O)C2)nc2c1oc1ccc(NCc3ccccc3F)cc12` [Compound 462], the IC50 in test [1] and in test [2] was below 10 µM throughout.
Take `COc1ccc(-c2nc3c(oc4ccc(Br)cc43)c(=O)[nH]2)c(Cl)c1` [Compound 79, 8-bromo-2-[2-chloro-4-(methyloxy)phenyl][1]benzofuro[3,2-d]pyrimidin-4(3H)-one]: the IC50 in test [1] and in test [2] was below 10 µM in each case.
Turning to `O=c1[nH]c(CN2CCN(c3cccnc3)CC2)nc2c1oc1ccc(Br)cc12` [Compound 240, 8-bromo-2-[(4-pyridin-3-ylpiperazin-1-yl)methyl][1]benzofuro[3,2-d]pyrimidin-4(3H)-one], the IC50 in test [1] and in test [2] was below 10 µM each time.
On to `O=c1[nH]c(COCC2CCNC2)nc2c1oc1ccc(Br)cc12` (centres unmarked) [Compound 288, 8-bromo-2-{[(pyrrolidin-3-ylmethyl)oxy]methyl}[1]benzofuro[3,2-d]pyrimidin-4(3H)-one], for which the IC50 in test [1] and in test [2] was below 10 µM in each case.
Take `O=c1[nH]c(CN2CC[C@H](O)C2)nc2c1oc1ccc(OCc3ccccc3)cc12` [Compound 475, 2-{[(3S)-3-hydroxypyrrolidin-1-yl]methyl}-8-[(phenylmethyl)oxy][1]benzofuro[3,2-d]pyrimidin-4(3H)-one]: the IC50 in test [1] and in test [2] was below 10 µM throughout.
For `O=c1[nH]c(CN2CC[C@H](O)C2)nc2c1oc1ccc(NCc3ccccc3)cc12` [Compound 443, 2-{[(3S)-3-hydroxypyrrolidin-1-yl]methyl}-8-[(phenylmethyl)amino][1]benzofuro[3,2-d]pyrimidin-4(3H)-one], the IC50 in test [1] and in test [2] was below 10 µM each time.
Turning to `O=C(Nc1ccc(-c2nc3c(oc4ccc(Br)cc43)c(=O)[nH]2)c(Cl)c1)c1ccc(Cl)cc1` [Compound 279, N-[4-(8-bromo-4-oxo-3,4-dihydro[1]benzofuro[3,2-d]pyrimidin-2-yl)-3-chlorophenyl]-4-chlorobenzamide], the IC50 in test [1] and in test [2] was below 10 µM in each case.
